Experimental data reported in paper PMC2409895, “Antitumour efficacy of VEGFR2 tyrosine kinase inhibitor correlates with expression of VEGF and its receptor VEGFR2 in tumour models” (British Journal of Cancer, 2004).

Experiments:
[1] = system: HUVEC grown in presence of VEGF; test: VEGF-induced HUVEC proliferation (BrdU incorporation); assay type: cell-based; settings: Homo sapiens, VEGF 10 ng ml^−1, 72 h
Method: (§1) Effect of kinase inhibitors on cell proliferation was measured using BrdU incorporation method using commercially available kits (Roche Diagnostics, Indianapolis, IN, USA). Briefly, HUVEC were seeded in a medium containing 5% FBS in type 1 Collagen-coated 96-well plates and incubated overnight at 37°C, 5% CO2. The medium was aspirated from the cells, and various concentrations of kinase inhibitors in serum-free medium were added to each well. After 30 min, VEGF (10 ng ml^−1) or bFGF (0.3 ng ml^−1) was added to the wells. Cells were incubated for an additional 72 h and BrdU (10 μM) was added during the last 18–24 h of incubation. Data were fitted with a curve described by the equation, y=Vmax × (1−(x/(K+x))), where K is equal to the IC50.

[2] = system: HUVEC grown in presence of bFGF; test: bFGF-induced HUVEC proliferation (BrdU incorporation); assay type: cell-based; settings: Homo sapiens, bFGF 0.3 ng ml^−1, 72 h
Method: as §1

[3] = molecular target: T1, human VEGFR2 kinase (Homo sapiens, UniProt P35968); test: VEGFR2 kinase assay (HTRF); assay type: biochemical; settings: Table 1
T1 construct: GST-fusion protein encoding the catalytic carboxyl-terminus of human VEGFR kinase 1, 2, or 3; made in house; host or cells: baculovirus expression system
T1 sequence (P35968 834-1162 limits assumed): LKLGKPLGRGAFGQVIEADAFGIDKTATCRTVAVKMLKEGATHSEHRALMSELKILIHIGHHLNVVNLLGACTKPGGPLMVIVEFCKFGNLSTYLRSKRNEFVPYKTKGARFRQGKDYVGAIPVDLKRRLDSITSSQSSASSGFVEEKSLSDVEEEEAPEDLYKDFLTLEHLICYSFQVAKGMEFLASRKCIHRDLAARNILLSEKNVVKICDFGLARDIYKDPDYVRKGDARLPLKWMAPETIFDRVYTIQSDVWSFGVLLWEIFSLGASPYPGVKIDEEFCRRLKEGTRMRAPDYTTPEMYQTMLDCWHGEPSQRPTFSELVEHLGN
Method: Vascular endothelial growth factor receptor kinase assays were carried out in a homogenous time-resolved fluorescence (HTRF) format in 384-well microtitre plates using a purified, baculovirus-expressed GST-fusion protein encoding the catalytic carboxyl-terminus of human VEGFR kinase 1, 2, or 3. Reactions were initiated by the addition of 10 μl of activated VEGFR kinase (1 nM, 0.1 M HEPES pH 7.5, 0.1 mg ml^−1 BSA, and 0.30 mM DTT) to 10 μl of substrate (360 nM biotin-aminohexyl-EEEEYFELVAKKKK-NH2 peptide, 75 μM ATP, 10 mM MgCl2) and 1 μl of small molecule inhibitor at various concentrations. Plates were incubated at room temperature for 60 min, and the reaction was stopped by the addition of 20 μl 100 mM EDTA. Homogenous time-resolved fluorescence reagents (20 μl 15 nM streptavidin-linked allophycocyanin, 1 nM europium-labelled anti-phosphotyrosine antibody in 0.1 M HEPES, pH 7.5, 0.1 mg ml^−1 BSA) were added and plates were incubated for a minimum of 10 min. The fluorescence at 665 nm was measured with a Victor plate reader (Wallac, Shelton, CT, USA) using a time delay of 50 μs. […] Data were fitted with a curve described by: y=((Vmax × x)/(K+x)+Y2), where Vmax is the upper asymptote, Y2 is the Y intercept, and K is the IC50.

SMILES: Cc1n[nH]c2cc(N(C)c3ccnc(Nc4cc(S(N)(=O)=O)ccc4Cl)n3)ccc12 [GW695612, 4-chloro-3-({4-[methyl(3-methyl-1H-indazol-6-yl)amino]pyrimidin-2-yl}amino)benzenesulphonamide]
- IC50 [1]: 260 nM
- IC50 [2]: 3840 nM
- IC50 [3]: 1.1 nM
